Source: the Kinase Knowledgebase extract (Sharma et al. 2016)
Several values for one entry are separate records, joined by “and”; a condition that tells them apart may be missing. Identical values can stand only once.

Biological target: MAPK14 (human) (UniProt Q16539)
Experiment: Inhibition of MAPK14 Kinase Activity

Chain of MAPK14 (human) (Q16539 whole entry, looked up): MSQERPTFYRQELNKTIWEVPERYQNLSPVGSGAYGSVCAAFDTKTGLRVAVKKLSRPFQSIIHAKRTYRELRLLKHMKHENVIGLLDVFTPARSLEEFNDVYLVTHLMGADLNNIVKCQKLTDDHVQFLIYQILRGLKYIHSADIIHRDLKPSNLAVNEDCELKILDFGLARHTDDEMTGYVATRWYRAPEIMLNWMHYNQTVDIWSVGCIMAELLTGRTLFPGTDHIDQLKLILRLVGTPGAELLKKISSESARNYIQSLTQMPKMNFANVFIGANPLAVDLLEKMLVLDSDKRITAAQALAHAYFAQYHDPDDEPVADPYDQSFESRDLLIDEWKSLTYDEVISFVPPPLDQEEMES

| IC50 | SMILES |
| --- | --- |
| 859 nM | CN(C)CCNc1nccc(-c2c(-c3ccc(Cl)cc3)n[nH]c2C2CCN(C(=O)CO)CC2)n1 |
| 10 nM | CC(C)(C)OC(=O)N1CCC(c2[nH]nc(-c3ccc(Cl)cc3F)c2-c2ccnc(NC3CCCC3)n2)CC1 |
| 2680 nM | Cc1cc(F)ccc1-c1n[nH]c(C2CCN(C(=O)CO)CC2)c1-c1ccncn1 |
| 1000 nM | CN(C)CCNc1nccc(-c2c(-c3ccc(Cl)cc3F)n[nH]c2C2CCN(C)CC2)n1 |
| 120 nM | O=C(C1CCCO1)N1CCC(c2[nH]nc(-c3ccc(Cl)cc3)c2-c2ccncn2)CC1 (centres undefined) |
| 155 nM | Cc1cc(-c2n[nH]c(C3CCN(C(=O)CO)CC3)c2-c2ccncn2)ccc1F |
| 339 nM | O=C(CO)N1CCC(c2[nH]nc(-c3ccc(F)c(C(F)(F)F)c3)c2-c2ccncn2)CC1 |
| 130 nM and 61 nM | C[C@H](N[C@H]1CC[C@@H](c2[nH]nc(-c3ccc(Cl)cc3)c2-c2ccncn2)CC1)c1ccc(F)cc1 |
| 572 nM | CC(=O)O[C@@H](C(=O)N1CCC(c2[nH]nc(-c3ccc(Cl)cc3)c2-c2ccncn2)CC1)c1ccccc1 |
| 1680 nM | CC(C)(C)OC(=O)N1CCC(c2[nH]nc(-c3ccc(Cl)cc3)c2-c2ccnc(O[C@H]3CCOC3)n2)CC1 |
| 10 nM | O=C(CO)N1CCC(c2[nH]nc(-c3ccc(Cl)cc3)c2-c2ccnc(NC3CCCC3)n2)CC1 |
| > 100000 nM | COc1ccc(-c2n[nH]c(C3CCN(C(=O)CO)CC3)c2-c2ccncn2)cc1OC |
| 111 nM | CN(C)CCNc1nccc(-c2c(-c3ccc(F)c(C(F)(F)F)c3)n[nH]c2C2CCNCC2)n1 |
| 9.27 nM | Fc1ccc(CN2CCC(c3[nH]nc(-c4ccc(Cl)cc4)c3-c3ccncn3)CC2)cc1 |
| 455 nM | O=C(CO)N1CCC(c2[nH]nc(-c3ccc(Cl)c(F)c3)c2-c2ccncn2)CC1 |
| 5.76 nM | C[C@@H](N[C@H]1CC[C@H](c2[nH]nc(-c3ccc(Cl)cc3)c2-c2ccncn2)CC1)c1ccc(F)cc1 |

| SMILES | IC50 |
| --- | --- |
| C[C@@H](N[C@H]1CC[C@H](c2[nH]nc(-c3ccc(Cl)cc3)c2-c2ccncn2)CC1)c1ccccc1 | 8.56 nM |
| Clc1ccc(-c2n[nH]c([C@H]3CC[C@@H](NC4CCCCC4)CC3)c2-c2ccncn2)cc1 | 235 nM |
| C[C@H](N[C@H]1CC[C@@H](c2[nH]nc(-c3ccc(Cl)cc3)c2-c2ccncn2)CC1)c1ccccc1 | 112 nM and 44.9 nM |
